Laboratory results published in PubChem BioAssay AID248 (DTP/NCI, 2004).
Where “and” joins values, the source holds several entries; their conditions need not be identical. Equal entries are not always repeated. Toxic doses and inconclusive results are not listed. No stated cut-off is given here; in the data, active means T/C of 150% or more; inactive means T/C below 125%.

Tested on: L1210 leukemia ip in BDF1 mice, survival T/C
Assay: NCI In Vivo Anticancer Drug Screen. Data for tumor model L1210 Leukemia (intraperitoneal) in B6D2F1 (BDF1) mice
Details: endpoint: mean survival time, higher = longer survival
Outline: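 Value reflects the ratio of survival in compound-treated mice to survival in vehicle-treated controls, with both groups carrying the same transplanted tumor.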

[1] = dose: 100.0 mg/kg/injection, schedule: Q04DX002 (ip), vehicle: saline with Tween-80
[2] = dose: 100.0 mg/kg/injection, schedule: Q01DX001 (ip), vehicle: carboxymethylcellulose (CMC)
[3] = dose: 200.0 mg/kg/injection, schedule: Q01DX001 (ip), vehicle: carboxymethylcellulose (CMC)
[4] = dose: 400.0 mg/kg/injection, schedule: Q01DX001 (ip), vehicle: carboxymethylcellulose (CMC)
[5] = dose: 100.0 mg/kg/injection, schedule: Q01DX009 (ip), vehicle: Klucel (hydroxypropylcellulose) (HPC)
[6] = dose: 100.0 mg/kg/injection, schedule: Q04DX003 (ip), vehicle: Klucel (hydroxypropylcellulose) (HPC)
[7] = dose: 200.0 mg/kg/injection, schedule: Q01DX009 (ip), vehicle: Klucel (hydroxypropylcellulose) (HPC)
[8] = dose: 200.0 mg/kg/injection, schedule: Q04DX003 (ip), vehicle: Klucel (hydroxypropylcellulose) (HPC)
[9] = dose: 400.0 mg/kg/injection, schedule: Q01DX009 (ip), vehicle: Klucel (hydroxypropylcellulose) (HPC)
[10] = dose: 400.0 mg/kg/injection, schedule: Q04DX003 (ip), vehicle: Klucel (hydroxypropylcellulose) (HPC)
[11] = dose: 100.0 mg/kg/injection, schedule: Q01DX001 (ip), vehicle: saline
[12] = dose: 200.0 mg/kg/injection, schedule: Q01DX001 (ip), vehicle: saline
[13] = dose: 400.0 mg/kg/injection, schedule: Q01DX001 (ip), vehicle: saline
[14] = dose: 100.0 mg/kg/injection, schedule: Q01DX009 (ip), vehicle: saline with Tween-80
[15] = dose: 200.0 mg/kg/injection, schedule: Q01DX009 (ip), vehicle: saline with Tween-80
[16] = dose: 400.0 mg/kg/injection, schedule: Q01DX009 (ip), vehicle: saline with Tween-80
[17] = dose: 100.0 mg/kg/injection, schedule: Q04DX002 (ip), vehicle: Klucel (hydroxypropylcellulose) (HPC)
[18] = dose: 200.0 mg/kg/injection, schedule: Q04DX002 (ip), vehicle: Klucel (hydroxypropylcellulose) (HPC)
[19] = dose: 400.0 mg/kg/injection, schedule: Q04DX002 (ip), vehicle: Klucel (hydroxypropylcellulose) (HPC)

Measured: T/C

O=C(CCl)Nc1ccc(CCN2C(=O)CC(c3ccccc3)C2=O)cc1 (stereo not given)
inactive: [1] 93 % of control | dose: 200.0 mg/kg/injection, schedule: Q04DX002 (ip), vehicle: saline with Tween-80 97 % of control | dose: 400.0 mg/kg/injection, schedule: Q04DX002 (ip), vehicle: saline with Tween-80 89 % of control

C=CC(C)(C)c1c(OC(C)=O)cc2oc3c(OC(C)=O)c(OC(C)=O)cc(CC=C(C)C)c3c(=O)c2c1O
inactive: [2] 95 % of control | [3] 92 % of control | [4] 111 % of control

Cc1ccc(C)c(NC(=O)Oc2cc(C)c(Cl)cc2C(C)C)c1
inactive: [5] 92 % of control and 102 % of control | [6] 103 % of control | [7] 100 % of control and 87 % of control | [8] 115 % of control | [9] 102 % of control and 90 % of control | [10] 97 % of control

O=C(Nc1ccccc1C(F)(F)F)OCCOc1ccccc1
inactive: dose: 100.0 mg/kg/injection, schedule: Q01DX009 (ip), vehicle: gum acacia 92 % of control | dose: 200.0 mg/kg/injection, schedule: Q01DX009 (ip), vehicle: gum acacia 88 % of control | dose: 400.0 mg/kg/injection, schedule: Q01DX009 (ip), vehicle: gum acacia 93 % of control

O=C1OC(=O)C2C1C=C(c1ccccc1)C1C3C=CC(C4C(=O)OC(=O)C34)C21 (stereo not given)
inactive: dose: 50.0 mg/kg/injection, schedule: Q01DX001 (ip), vehicle: saline 98 % of control | [11] 101 % of control | [12] 104 % of control | [13] 106 % of control

CCCCC(CC)CP(=O)(CC(CC)CCCC)CC(CC)CCCC (stereo not given)
inactive: dose: 55.0 mg/kg/injection, schedule: Q01DX Z (ip), vehicle: methylcellulose (MC) 104 % of control | dose: 83.0 mg/kg/injection, schedule: Q01DX Z (ip), vehicle: methylcellulose (MC) 100 % of control | dose: 125.0 mg/kg/injection, schedule: Q01DX Z (ip), vehicle: methylcellulose (MC) 108 % of control

CCc1cc(S(=O)(=O)O)c(CC)c(CC)c1CC
inactive: [14] 97 % of control

CC(=O)N1C(=O)NC(=O)C1(C)c1ccco1 (stereo not given)
inactive: [14] 103 % of control | dose: 100.0 mg/kg/injection, schedule: Q04DX003 (ip), vehicle: saline with Tween-80 94 % of control | [15] 100 % of control | dose: 200.0 mg/kg/injection, schedule: Q04DX003 (ip), vehicle: saline with Tween-80 97 % of control | [16] 97 % of control | dose: 400.0 mg/kg/injection, schedule: Q04DX003 (ip), vehicle: saline with Tween-80 105 % of control

CCOc1ccc(NC2CNC(=O)NC2=O)cc1 (stereo not given)
inactive: dose: 200.0 mg/kg/injection, schedule: Q01DX Z (ip), vehicle: methylcellulose (MC) 91 % of control

Cc1c(O)ccc2c1CCCC2
inactive: dose: 25.0 mg/kg/injection, schedule: Q04DX003 (ip), vehicle: Klucel (hydroxypropylcellulose) (HPC) 103 % of control | dose: 50.0 mg/kg/injection, schedule: Q04DX003 (ip), vehicle: Klucel (hydroxypropylcellulose) (HPC) 97 % of control | dose: 100.0 mg/kg/injection, schedule: Q01DX009 (ip), vehicle: saline sonified 92 % of control | [6] 92 % of control and 117 % of control | dose: 200.0 mg/kg/injection, schedule: Q01DX009 (ip), vehicle: saline sonified 88 % of control | [8] 107 % of control | dose: 400.0 mg/kg/injection, schedule: Q01DX009 (ip), vehicle: saline sonified 94 % of control | [10] 103 % of control

CC/C(=C(\CC)c1ccc(OCCN(CCCl)CCCl)cc1)c1ccc(OCCN(CCCl)CCCl)cc1
inactive: dose: 25.0 mg/kg/injection, schedule: Q04DX002 (ip), vehicle: saline with Tween-80 90 % of control | dose: 50.0 mg/kg/injection, schedule: Q04DX002 (ip), vehicle: saline with Tween-80 94 % of control | [1] 101 % of control

O=C(Nc1ccccc1)c1ccccc1C(O)(c1ccccc1)c1ccccc1
inactive: [11] 97 % of control | [12] 86 % of control | [13] 102 % of control

NC(N)=N/N=C/c1ccc(O)c(S(=O)(=O)O)c1
inactive: dose: 15.0 mg/kg/injection, schedule: Q01DX Z (ip), vehicle: saline 97 % of control | dose: 30.0 mg/kg/injection, schedule: Q01DX Z (ip), vehicle: saline 90 % of control | dose: 60.0 mg/kg/injection, schedule: Q01DX Z (ip), vehicle: saline 87 % of control | dose: 60.0 mg/kg/injection, schedule: Q01DX Z (oral), vehicle: saline 97 % of control | dose: 120.0 mg/kg/injection, schedule: Q01DX Z (ip), vehicle: saline 90 % of control | dose: 120.0 mg/kg/injection, schedule: Q01DX Z (oral), vehicle: saline 104 % of control | dose: 240.0 mg/kg/injection, schedule: Q01DX Z (oral), vehicle: saline 95 % of control | dose: 480.0 mg/kg/injection, schedule: Q01DX Z (ip), vehicle: saline 90 % of control | dose: 480.0 mg/kg/injection, schedule: Q01DX Z (oral), vehicle: saline 95 % of control

C1=C(c2ccccc2)N(C2CCCCCC2)C(c2ccccc2)=CN1Cc1ccccc1
inactive: [17] 96 % of control | [18] 107 % of control | [19] 100 % of control

COC(=O)c1sc2ccccc2c1C
inactive: [2] 104 % of control | [3] 98 % of control | [4] 98 % of control

O=S1(=O)C2C=CCC1C(Cl)CC2 (stereo not given)
inactive: dose: 12.5 mg/kg/injection, schedule: Q01DX001 (ip), vehicle: Klucel (hydroxypropylcellulose) (HPC) 97 % of control | dose: 12.5 mg/kg/injection, schedule: Q01DX009 (ip), vehicle: Klucel (hydroxypropylcellulose) (HPC) 92 % of control | dose: 25.0 mg/kg/injection, schedule: Q01DX001 (ip), vehicle: Klucel (hydroxypropylcellulose) (HPC) 95 % of control | dose: 25.0 mg/kg/injection, schedule: Q01DX009 (ip), vehicle: Klucel (hydroxypropylcellulose) (HPC) 89 % of control | dose: 50.0 mg/kg/injection, schedule: Q01DX001 (ip), vehicle: Klucel (hydroxypropylcellulose) (HPC) 93 % of control

COc1cc(/C=N/NC(=O)CNC(=O)c2ccccc2)ccc1O
inactive: [14] 102 % of control | [15] 102 % of control | [16] 101 % of control

Nc1cc(OCc2ccccc2)cc(OCc2ccccc2)c1
inactive: dose: 25.0 mg/kg/injection, schedule: Q01DX009 (ip), vehicle: water 89 % of control | dose: 50.0 mg/kg/injection, schedule: Q01DX009 (ip), vehicle: water 97 % of control | dose: 100.0 mg/kg/injection, schedule: Q01DX009 (ip), vehicle: water 93 % of control

O=C(Nc1cccc(O)c1)Nc1ccccc1F
inactive: dose: 100.0 mg/kg/injection, schedule: Q01DX001 (ip), vehicle: Klucel (hydroxypropylcellulose) (HPC) 102 % of control | [5] 102 % of control and 90 % of control | [17] 97 % of control and 92 % of control | [6] 103 % of control | dose: 200.0 mg/kg/injection, schedule: Q01DX001 (ip), vehicle: Klucel (hydroxypropylcellulose) (HPC) 104 % of control | [7] 96 % of control and 101 % of control | [18] 98 % of control and 99 % of control | [8] 110 % of control | dose: 400.0 mg/kg/injection, schedule: Q01DX001 (ip), vehicle: Klucel (hydroxypropylcellulose) (HPC) 104 % of control | [9] 98 % of control and 101 % of control | [19] 115 % of control and 89 % of control | [10] 98 % of control

O=C(O)/C=C/c1ccc(Cl)cc1
inactive: dose: 100.0 mg/kg/injection, schedule: Q04DX002 (ip), vehicle: gum acacia 107 % of control | dose: 200.0 mg/kg/injection, schedule: Q04DX002 (ip), vehicle: gum acacia 95 % of control | dose: 400.0 mg/kg/injection, schedule: Q04DX002 (ip), vehicle: gum acacia 107 % of control
